In experiment [1] the target is T1, 6-phosphofructo-2-kinase/fructose-2,6-bisphosphatase 3 (Homo sapiens, UniProt Q16875). As to the kind of experiment: Inhibition of iPFK2 (unknown origin) assessed as reduction in enzyme-mediated fructose-6-phosphate phosphorylation by measuring NADH absorbance pre-incubated for 10 mins before ATP/substrate addition followed by incubation for 1 hr by UV-Visible spectrometry based iPFK-2/PPI-PFK coupled enzyme assay.

For experiment [2], the target named is T1, 6-phosphofructo-2-kinase/fructose-2,6-bisphosphatase 3. As to the kind of experiment: Inhibition of iPFK2 (unknown origin) assessed as reduction in enzyme-mediated fructose-6-phosphate phosphorylation by measuring ATP consumption incubated for 3 hrs by luciferase-luciferin-coupled chemiluminescence assay.

The structures appear in SMILES notation.

The term IC50 denotes the midpoint of a concentration-inhibition curve.

T1 sequence (Q16875 whole entry): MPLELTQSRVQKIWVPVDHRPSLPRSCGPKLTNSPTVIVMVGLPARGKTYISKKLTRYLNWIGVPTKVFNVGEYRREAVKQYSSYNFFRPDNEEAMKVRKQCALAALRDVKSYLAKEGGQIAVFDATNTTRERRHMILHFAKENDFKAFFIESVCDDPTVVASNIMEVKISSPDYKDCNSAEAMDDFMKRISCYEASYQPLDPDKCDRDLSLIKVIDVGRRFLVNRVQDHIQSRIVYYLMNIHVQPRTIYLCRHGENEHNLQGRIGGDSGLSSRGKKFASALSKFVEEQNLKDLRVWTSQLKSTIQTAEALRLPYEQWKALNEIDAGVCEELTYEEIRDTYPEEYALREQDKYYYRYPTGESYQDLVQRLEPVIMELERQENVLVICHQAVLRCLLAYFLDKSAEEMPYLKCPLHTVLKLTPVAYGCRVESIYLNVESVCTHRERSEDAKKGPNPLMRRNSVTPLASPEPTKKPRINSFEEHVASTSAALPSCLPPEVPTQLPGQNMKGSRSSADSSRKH

For the molecule `COc1cccc(-c2cc(NC(C)c3cccc(-c4cnn(C)c4)c3)nc(C)n2)c1F` (centres undefined), the concentration for half-maximal inhibition (IC50) in experiment [1] is over 1000 nM; in experiment [2] it was 500 nM.

With `CCc1coc2ccc(-c3cc(N[C@@H](C)c4cccc(Br)c4)nc(C)n3)cc12`, the half-maximal inhibitory concentration (IC50) in experiment [1] is 500 nM; in experiment [2], over 1000 nM.

As to `Cc1nc(NC(C)c2cccc(-c3cnn(C)c3)c2)cc(-c2ccc(C(F)(F)F)cc2)n1` (centres undefined), the IC50 in experiment [1] and in experiment [2] was over 1000 nM each time.

Take `Cc1nc(NC(C)c2cccc(OCc3nc(C(=O)O)co3)c2)cc(-c2ccc3ncsc3c2)n1` (centres undefined): the concentration for half-maximal inhibition (IC50) in experiment [1] was over 1000 nM; in experiment [2] it was 500 nM.

For `Cc1nc(NC(C)c2cccc(OCC(F)(F)F)c2)cc(-c2ccc3ncsc3c2)n1` (centres undefined), the figures for the IC50 in experiment [1] and in experiment [2] were 500 nM and over 1000 nM, respectively.

With `Cc1nc(NC(C)c2ccc(F)c(Br)c2)cc(-c2ccc3occ(C)c3c2)n1` (centres undefined), the results for the half-inhibitory concentration (IC50) in experiment [1] and in experiment [2] were 500 nM and over 1000 nM, respectively.

Take `Cc1nc(NC(C)c2cccc(-c3c(C)noc3C)c2)cc(-c2ccc3ncsc3c2)n1` (centres undefined): the 50% inhibitory concentration (IC50) is 500 nM in experiment [1] and over 1000 nM in experiment [2].

Consider `Cc1nc(NC(C)c2cccc(N)c2)cc(-c2ccc3ncsc3c2)n1` (centres undefined), for which the values for the IC50 in experiment [1] and in experiment [2] were 500 nM and over 1000 nM, respectively.

For `Cc1nc(NC(C)c2cccc([N+](=O)[O-])c2)cc(-c2ccc3ncsc3c2)n1` (centres undefined), the IC50 in experiment [1] and in experiment [2] was 500 nM throughout.

Turning to `Cc1nc(N[C@@H]2CCCc3ccccc32)cc(-c2cnc3ccccc3c2)n1`, the 50% inhibitory concentration (IC50) in experiment [1] was over 1000 nM; in experiment [2] it was 500 nM.

For the molecule `CCOC(=O)c1cncc(-c2cccc(C(C)Nc3cc(-c4ccc5ncsc5c4)nc(C)n3)c2)c1` (centres undefined), the IC50 was 500 nM in experiment [1] and over 1000 nM in experiment [2].

With `Cc1ccc(OCc2noc(COc3cccc(C(C)Nc4cc(-c5ccc6ncsc6c5)nc(C)n4)c3)n2)cc1` (centres undefined), the concentration for half-maximal inhibition (IC50) in experiment [1] and in experiment [2] was over 1000 nM each time.

For `Cc1cc(-c2cccc(C(C)Nc3cc(-c4ccc5ncsc5c4)nc(C)n3)c2)ccn1` (centres undefined), the IC50 in experiment [1] and in experiment [2] was 500 nM each time.

As to `Cc1nc(N[C@@H](C)c2ccccc2)cc(-c2ccc3ncsc3c2)n1`, the IC50 in experiment [1] and in experiment [2] was over 1000 nM in each case.

On to `Cc1nc(NC(C)c2cccc(-c3ccoc3)c2)cc(-c2ccc3ncsc3c2)n1` (centres undefined), for which the half-inhibitory concentration (IC50) in experiment [1] and in experiment [2] was over 1000 nM each time.

For `Cc1nc(NC(C)c2cccc(-c3ccc(N(C)C)nc3)c2)cc(-c2ccc3ncsc3c2)n1` (centres undefined), the IC50 in experiment [1] and in experiment [2] was 500 nM throughout.

Turning to `Cc1nc(NC(C)c2cccc(-c3ccsc3)c2)cc(-c2ccc3ncsc3c2)n1` (centres undefined), the half-inhibitory concentration (IC50) in experiment [1] and in experiment [2] was over 1000 nM throughout.

Regarding `Cc1ccc(COc2cccc(C(C)Nc3cc(-c4ccc5ncsc5c4)nc(C)n3)c2)cc1` (centres undefined), the IC50 in experiment [1] and in experiment [2] was over 1000 nM each time.

For the molecule `Cc1nc(N[C@H](C)c2cccc(-n3cnnn3)c2)cc(-c2ccc3occ(C)c3c2)n1`, the half-maximal inhibitory concentration (IC50) was over 1000 nM in experiment [1] and 500 nM in experiment [2].

Regarding `COC(=O)c1coc(COc2cccc(C(C)Nc3cc(-c4ccc5ncsc5c4)nc(C)n3)c2)n1` (centres undefined), the half-inhibitory concentration (IC50) in experiment [1] and in experiment [2] was over 1000 nM each time.

As for `Cc1nc(N[C@H](C)c2ccc(F)c(-c3cnn(C)c3)c2)cc(-c2ccc3occ(C)c3c2)n1`, the half-maximal inhibitory concentration (IC50) is 500 nM in experiment [1] and over 1000 nM in experiment [2].

With `Cc1nc(NC(C)c2cccc(-c3cccnc3F)c2)cc(-c2ccc3ncsc3c2)n1` (centres undefined), the figures for the IC50 in experiment [1] and in experiment [2] were 500 nM and over 1000 nM, respectively.

Values taken from ChEMBL document CHEMBL3727358, “Inhibitors of inducible form of 6-phosphofructose-2-kinase” (2014).
